The target in one assay is PIM-2 (Homo sapiens (Human), UniProt Q9P1W9). Nature of the assay: PIM-2 biochemical assay (ADP Hunter). Particulars: semi-quantitative; read-out: PIM2 IC50. The source says:
The biochemical assay to measure PIM-2 activity relies on the ADP Hunter assay kit (DiscoveRx Corp., Cat. #90-0077), that determines the amount of ADP as direct product of the kinase enzyme activity.

In another assay the target is PIM-1 (Homo sapiens (Human), UniProt P11309). Nature of the assay: PIM-1 biochemical assay (ADP Hunter).
Chain of PIM-1 (P11309 whole entry): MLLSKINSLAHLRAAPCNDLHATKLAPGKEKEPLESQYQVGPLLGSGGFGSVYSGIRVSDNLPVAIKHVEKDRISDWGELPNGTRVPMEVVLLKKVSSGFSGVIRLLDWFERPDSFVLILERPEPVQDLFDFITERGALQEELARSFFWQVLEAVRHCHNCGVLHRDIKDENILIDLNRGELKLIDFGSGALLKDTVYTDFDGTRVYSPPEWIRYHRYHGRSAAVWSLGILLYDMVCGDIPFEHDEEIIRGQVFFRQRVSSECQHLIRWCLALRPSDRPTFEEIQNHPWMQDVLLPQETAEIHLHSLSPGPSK
Setting [1] is: read-out: PIM1 IC50, semi-quantitative.

Each structure is given as a SMILES string. Like-named read-outs stand apart in the source and are kept apart here.

Chain of PIM-2 (Q9P1W9 whole entry): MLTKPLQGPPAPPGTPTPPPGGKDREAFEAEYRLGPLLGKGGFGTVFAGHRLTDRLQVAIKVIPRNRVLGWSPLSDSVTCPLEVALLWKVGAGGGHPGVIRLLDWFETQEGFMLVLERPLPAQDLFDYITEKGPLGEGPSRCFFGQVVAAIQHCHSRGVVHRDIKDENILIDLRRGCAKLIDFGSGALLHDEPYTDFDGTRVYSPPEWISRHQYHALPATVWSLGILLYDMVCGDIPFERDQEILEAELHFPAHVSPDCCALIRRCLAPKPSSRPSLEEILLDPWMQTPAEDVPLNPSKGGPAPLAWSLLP

For the compound `COc1ccc(-c2nnc3c4c(c(NCC5CCN(C)CC5)nn23)N(C)CCO4)cc1` [Example 1, [3-(4-Methoxy-phenyl)-6-methyl-7,8-dihydro-6H-9-oxa-1,2,3a,4,6-pentaaza-cyclopenta[a]naphthalen-5-yl]-(1-methyl-piperidin-4-ylmethyl)-amine], the values for the half-inhibitory concentration (IC50) on PIM-2 and at PIM-1 were greater than 1 µM and 0.1 to 1 µM, respectively.
For `CN1CCC(Nc2nn3c(-c4cccc(OC(F)(F)F)c4)nnc3c3c2OCCN3C)CC1` [Example 3, (1-Methyl-piperidin-4-yl)-[9-methyl-3-(3-trifluoromethoxy-phenyl)-8,9-dihydro-7H-6-oxa-1,2,3a,4,9-pentaaza-cyclopenta[a]naphthalen-5-yl]-amine], in that order: greater than 1 µM and 0.1 to 1 µM.
As to `COc1ccc(-c2nnc3c4c(c(NCCN5CCOCC5)nn23)N(C)CCO4)cc1` [Example 4, [3-(4-Methoxy-phenyl)-6-methyl-7,8-dihydro-6H-9-oxa-1,2,3a,4,6-pentaaza-cyclopenta[a]naphthalen-5-yl]-(2-morpholin-4-yl-ethyl)-amine], the results for the half-inhibitory concentration (IC50) at PIM-2, on PIM-1 and at PIM-1 (read-out: PIM1 IC50) were greater than 1 µM, 0.1 to 1 µM and 0.811 µM, respectively.
As for `CN1CCOc2c(NCC3CC3)nn3c(-c4cccc(OC(F)(F)F)c4)nnc3c21` [Example 8, Cyclopropylmethyl-[9-methyl-3-(3-trifluoromethoxy-phenyl)-8,9-dihydro-7H-6-oxa-1,2,3a,4,9-pentaaza-cyclopenta[a]naphthalen-5-yl]-amine], the IC50 was greater than 1 µM on PIM-2 and 0.1 to 1 µM on PIM-1.
With `CN1CCOc2c(NCc3ccc(F)cc3)nn3c(-c4cccc(OC(F)(F)F)c4)nnc3c21` [Example 10, (4-Fluoro-benzyl)-[9-methyl-3-(3-trifluoromethoxy-phenyl)-8,9-dihydro-7H-6-oxa-1,2,3a,4,9-pentaaza-cyclopenta[a]naphthalen-5-yl]-amine], the IC50 on PIM-2 and at PIM-1 (setting [1]) was greater than 1 µM in each case.
Consider `CCN1CCOc2c1c(NCC1CC1)nn1c(-c3cccc(OC(F)(F)F)c3)nnc21` [Example 11, Cyclopropylmethyl-[6-ethyl-3-(3-trifluoromethoxy-phenyl)-7,8-dihydro-6H-9-oxa-1,2,3a,4,6-pentaaza-cyclopenta[a]naphthalen-5-yl]-amine], for which the concentration for half-maximal inhibition (IC50) on PIM-2 was 0.1 to 1 µM; on PIM-1 (setting [1]) it was less than 0.1 µM.
For the compound `CCN1CCOc2c(NC3CCOCC3)nn3c(-c4cccc(OC(F)(F)F)c4)nnc3c21` [Example 14, [9-Ethyl-3-(3-trifluoromethoxy-phenyl)-8,9-dihydro-7H-6-oxa-1,2,3a,4,9-pentaaza-cyclopenta[a]naphthalen-5-yl]-(tetrahydro-pyran-4-yl)-amine], the half-maximal inhibitory concentration (IC50) on PIM-2 was greater than 1 µM; at PIM-1, 0.1 to 1 µM; at PIM-1 (read-out: PIM1 IC50), 0.583 µM.
Regarding `COc1ccc(-c2nnc3c4c(c(NCc5ccc(F)cc5)nn23)N(C)CCN4C)cc1` [Example 15, (4-Fluoro-benzyl)-[3-(4-methoxy-phenyl)-6,9-dimethyl-6,7,8,9-tetrahydro-1,2,3a,4,6,9-hexaaza-cyclopenta[a]naphthalen-5-yl]-amine], the IC50 at PIM-2 was greater than 1 µM; at PIM-1 it was greater than 1 µM; at PIM-1 (read-out: PIM1 IC50) it was 4.35 µM.
In the case of `CN1CCC(CN(C)c2nn3c(-c4cccc(OC(F)(F)F)c4)nnc3c3c2OCCN3C)CC1` [Example 18, Methyl-(1-methyl-piperidin-4-ylmethyl)-[9-methyl-3-(3-trifluoromethoxy-phenyl)-8,9-dihydro-7H-6-oxa-1,2,3a,4,9-pentaaza-cyclopenta[a]naphthalen-5-yl]-amine], the half-maximal inhibitory concentration (IC50) at PIM-2 and on PIM-1 (setting [1]) was greater than 1 µM throughout.
For `CN1CCOc2c1c(N[C@H]1CC[C@H](O)CC1)nn1c(-c3cccc(OC(F)(F)F)c3)nnc21` [Example 19, 4-[6-Methyl-3-(3-trifluoromethoxy-phenyl)-7,8-dihydro-6H-9-oxa-1,2,3a,4,6-pentaaza-cyclopenta[a]naphthalen-5-ylamino]-cyclohexanol], the concentration for half-maximal inhibition (IC50) at PIM-1 (setting [1]) was less than 0.1 µM.
On to `CN1CCOc2c(NCCCO)nn3c(-c4cccc(OC(F)(F)F)c4)nnc3c21` [Example 22, 3-[9-Methyl-3-(3-trifluoromethoxy-phenyl)-8,9-dihydro-7H-6-oxa-1,2,3a,4,9-pentaaza-cyclopenta[a]naphthalen-5-ylamino]-propan-1-ol], for which the half-maximal inhibitory concentration (IC50) on PIM-2 is greater than 1 µM; against PIM-1 it was 0.1 to 1 µM; on PIM-1 (read-out: PIM1 IC50), 0.678 µM.
Take `COc1ccc(CNc2nn3c(-c4cccc(OC(F)(F)F)c4)nnc3c3c2N(C)CCO3)cc1OC` [Example 24, (3,4-Dimethoxy-benzyl)-[6-methyl-3-(3-trifluoromethoxy-phenyl)-7,8-dihydro-6H-9-oxa-1,2,3a,4,6-pentaaza-cyclopenta[a]naphthalen-5-yl]-amine]: the IC50 on PIM-2 was greater than 1 µM; at PIM-1 it was 0.1 to 1 µM.
Turning to `CN1CCC(CNc2nn3c(-c4ccc5[nH]ccc5c4)nnc3c3c2N(C)CCO3)CC1` [Example 33, [3-(1H-Indol-5-yl)-6-methyl-7,8-dihydro-6H-9-oxa-1,2,3a,4,6-pentaaza-cyclopenta[a]naphthalen-5-yl]-(1-methyl-piperidin-4-ylmethyl)-amine], the IC50 at PIM-2 is greater than 1 µM; on PIM-1, 0.1 to 1 µM.
For the compound `CN1CCOc2c1c(N(C)[C@H]1CC[C@H](O)CC1)nn1c(-c3cccc(OC(F)(F)F)c3)nnc21` [Example 35, 4-{Methyl-[6-methyl-3-(3-trifluoromethoxy-phenyl)-7,8-dihydro-6H-9-oxa-1,2,3a,4,6-pentaaza-cyclopenta[a]naphthalen-5-yl]-amino}-cyclohexanol], the IC50 on PIM-2 and at PIM-1 (setting [1]) was less than 0.1 µM throughout.
`CC1COc2c(NCC3CCN(C)CC3)nn3c(-c4cccc(OC(F)(F)F)c4)nnc3c2N1C` (stereo not drawn) [Example 38, [8,9-Dimethyl-3-(3-trifluoromethoxy-phenyl)-8,9-dihydro-7H-6-oxa-1,2,3a,4,9-pentaaza-cyclopenta[a]naphthalen-5-yl]-(1-methyl-piperidin-4-ylmethyl)-amine]: the half-inhibitory concentration (IC50) on PIM-1 is 0.1 to 1 µM.
With `CC1COc2c(c(NCC3CCN(C)CC3)nn3c(-c4cccc(OC(F)(F)F)c4)nnc23)N1C` (stereo not drawn) [Example 39, [6,7-Dimethyl-3-(3-trifluoromethoxy-phenyl)-7,8-dihydro-6H-9-oxa-1,2,3a,4,6-pentaaza-cyclopenta[a]naphthalen-5-yl]-(1-methyl-piperidin-4-ylmethyl)-amine], the half-maximal inhibitory concentration (IC50) was 0.1 to 1 µM on PIM-2 and less than 0.1 µM at PIM-1 (setting [1]).
For `CN1CCC(CNc2nn3c(-c4cccc(OC(F)(F)F)c4)nnc3c3c2OCCO3)CC1` [Example 41, (1-Methyl-piperidin-4-ylmethyl)-[3-(3-trifluoromethoxy-phenyl)-7,8-dihydro-6,9-dioxa-1,2,3a,4-tetraaza-cyclopenta[a]naphthalen-5-yl]-amine], in that order: 0.1 to 1 µM and less than 0.1 µM.
As to `CN1CCOc2c(NCCN3CCNCC3)nn3c(-c4cccc(OC(F)(F)F)c4)nnc3c21` [Example 42, [9-Methyl-3-(3-trifluoromethoxy-phenyl)-8,9-dihydro-7H-6-oxa-1,2,3a,4,9-pentaaza-cyclopenta[a]naphthalen-5-yl]-(2-piperazin-1-yl-ethyl)-amine], the IC50 at PIM-1 lay in the range of 0.1 to 1 µM.
`CNC1CCN(c2nn3c(-c4cccc(OC(F)(F)F)c4)nnc3c3c2OCCN3C)CC1` [Example 44, Methyl-{1-[9-methyl-3-(3-trifluoromethoxy-phenyl)-8,9-dihydro-7H-6-oxa-1,2,3a,4,9-pentaaza-cyclopenta[a]naphthalen-5-yl]-piperidin-4-yl}-amine]: the IC50 is greater than 1 µM on PIM-2 and 0.1 to 1 µM on PIM-1.
In the case of `CC1COc2c(c(N3CCC4(CC3)CC(N)C4)nn3c(-c4cccc(OC(F)(F)F)c4)nnc23)N1C` (stereo not drawn) [Example 50, 7-[6,7-Dimethyl-3-(3-trifluoromethoxy-phenyl)-7,8-dihydro-6H-9-oxa-1,2,3a,4,6-pentaaza-cyclopenta[a]naphthalen-5-yl]-7-aza-spiro[3.5]non-2-ylamine], the concentration for half-maximal inhibition (IC50) on PIM-1 (setting [1]) was less than 0.1 µM.
Take `CN(CC1CCNCC1)c1nn2c(-c3cccc(OC(F)(F)F)c3)nnc2c2c1N(C)CCO2` [Example 64, Methyl-[6-methyl-3-(3-trifluoromethoxy-phenyl)-7,8-dihydro-6H-9-oxa-1,2,3a,4,6-pentaaza-cyclopenta[a]naphthalen-5-yl]-piperidin-4-ylmethyl-amine]: the IC50 at PIM-1 (setting [1]) was less than 0.1 µM.
On to `CN1CCOc2c1c(N1CCC3(CCCNC3)CC1)nn1c(-c3cccc(OC(F)(F)F)c3)nnc21` [Example 67, 5-(2,9-Diaza-spiro[5.5]undec-9-yl)-6-methyl-3-(3-trifluoromethoxy-phenyl)-7,8-dihydro-6H-9-oxa-1,2,3a,4,6-pentaaza-cyclopenta[a]naphthalene], for which, on PIM-1 (setting [1]), the IC50 is less than 0.1 µM.
Same read-out and setting: the value for `CN1CCOc2c1c(N[C@H]1CC[C@@H](N)CC1)nn1c(-c3cccc(OC(F)(F)F)c3)nnc21` [Example 70, N-[6-Methyl-3-(3-trifluoromethoxy-phenyl)-7,8-dihydro-6H-9-oxa-1,2,3a,4,6-pentaaza-cyclopenta[a]naphthalen-5-yl]-cyclohexane-1,4-diamine] was less than 0.1 µM; that for `CN1CCOc2c1c(N[C@H]1CC[C@H](N)CC1)nn1c(-c3cccc(OC(F)(F)F)c3)nnc21` [Example 71, N-[6-Methyl-3-(3-trifluoromethoxy-phenyl)-7,8-dihydro-6H-9-oxa-1,2,3a,4,6-pentaaza-cyclopenta[a]naphthalen-5-yl]-cyclohexane-1,4-diamine] was less than 0.1 µM; that for `CC(C)NC1CC2(CCN(c3nn4c(-c5cccc(OC(F)(F)F)c5)nnc4c4c3N(C)CCO4)CC2)C1` [Example 87, Isopropyl-{7-[6-methyl-3-(3-trifluoromethoxy-phenyl)-7,8-dihydro-6H-9-oxa-1,2,3a,4,6-pentaaza-cyclopenta[a]naphthalen-5-yl]-7-aza-spiro[3.5]non-2-yl}-amine] was less than 0.1 µM.

These data come from US9682991B2, “Tricyclic compounds for use as kinase inhibitors” (FUNDACIÓN CENTRO NACIONAL DE INVESTIGACIONES ONCOLOGICAS …, priority 2009, dated 2017).
